From patent US20250352596A1, “DIETARY SUPPLEMENTS FOR MOOD SUPPORT” (Melaleuca, Inc., priority 2024, published 2025)

Key:
Format in all cases: biochemical
GSK3α = GSK3α (Homo sapiens, UniProt P49840); experiment: kinase inhibition, IC50 of Blend A, ingredients and control; conditions: follow up investigation; for inositol the upper limit of use (1 mM) was used in the calculation
GRK2 = target: T1, GRK2 (Homo sapiens, UniProt P25098); experiment: as above
T1 sequence (P25098 1-689): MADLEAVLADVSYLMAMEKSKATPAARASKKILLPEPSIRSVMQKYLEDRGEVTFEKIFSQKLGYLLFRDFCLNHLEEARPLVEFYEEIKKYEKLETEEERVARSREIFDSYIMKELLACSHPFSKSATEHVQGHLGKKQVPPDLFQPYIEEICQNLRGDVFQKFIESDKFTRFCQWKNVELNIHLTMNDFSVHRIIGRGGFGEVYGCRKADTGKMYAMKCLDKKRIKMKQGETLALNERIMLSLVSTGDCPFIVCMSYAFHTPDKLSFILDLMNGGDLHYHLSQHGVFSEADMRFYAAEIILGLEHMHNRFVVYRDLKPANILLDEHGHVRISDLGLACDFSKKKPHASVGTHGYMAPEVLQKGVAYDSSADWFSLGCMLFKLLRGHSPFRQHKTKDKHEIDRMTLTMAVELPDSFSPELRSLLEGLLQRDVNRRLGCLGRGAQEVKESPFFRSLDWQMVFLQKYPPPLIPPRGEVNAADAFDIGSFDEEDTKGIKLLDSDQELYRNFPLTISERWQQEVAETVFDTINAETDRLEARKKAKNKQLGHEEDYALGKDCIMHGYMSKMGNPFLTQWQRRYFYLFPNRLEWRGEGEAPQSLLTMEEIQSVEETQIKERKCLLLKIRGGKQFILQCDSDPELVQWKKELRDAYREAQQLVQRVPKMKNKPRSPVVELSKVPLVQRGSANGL

GSK3β = GSK3β (Homo sapiens, UniProt P49841); experiment: as above; conditions: follow up investigation; for inositol the upper limit of use (1 mM) was used in the calculation
GSK3β, sequence (P49841 whole entry, species assumed): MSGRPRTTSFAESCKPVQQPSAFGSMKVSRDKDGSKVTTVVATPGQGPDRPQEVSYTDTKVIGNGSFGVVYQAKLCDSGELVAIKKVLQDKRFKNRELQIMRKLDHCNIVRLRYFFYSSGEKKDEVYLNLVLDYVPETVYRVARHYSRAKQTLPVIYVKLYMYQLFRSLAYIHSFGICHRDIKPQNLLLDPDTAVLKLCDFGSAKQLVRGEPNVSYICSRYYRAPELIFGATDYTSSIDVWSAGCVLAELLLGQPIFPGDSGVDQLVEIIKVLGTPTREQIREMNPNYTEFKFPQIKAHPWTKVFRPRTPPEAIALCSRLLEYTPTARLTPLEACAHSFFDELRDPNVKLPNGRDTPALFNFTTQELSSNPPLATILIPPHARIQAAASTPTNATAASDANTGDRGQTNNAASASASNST

ERK1 = ERK1 (Homo sapiens, UniProt P27361); experiment: kinase inhibition screen, IC50 of Blend A vs control compound; conditions: initial investigation, Table 17; Blend A head reads IC50* (asterisk unexplained)
ERK1, sequence (P27361 whole entry, species assumed): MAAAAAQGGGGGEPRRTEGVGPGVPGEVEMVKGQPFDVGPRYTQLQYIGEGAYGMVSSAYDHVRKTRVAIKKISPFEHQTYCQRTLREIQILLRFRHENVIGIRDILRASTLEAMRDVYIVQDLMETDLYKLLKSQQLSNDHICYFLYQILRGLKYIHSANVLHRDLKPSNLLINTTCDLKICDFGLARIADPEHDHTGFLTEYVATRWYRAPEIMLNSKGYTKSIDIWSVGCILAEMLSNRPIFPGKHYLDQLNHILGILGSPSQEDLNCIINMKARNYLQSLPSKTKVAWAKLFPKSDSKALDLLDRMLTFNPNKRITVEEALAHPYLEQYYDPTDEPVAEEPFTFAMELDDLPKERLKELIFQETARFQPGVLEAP
Excerpt: The cellular mechanism of action of known pharmaceutical compounds targeting mental health require the inhibition of individual enzymes. For example, one of the most well-known pharmaceuticals utilized in the mental health space, lithium, can trace its efficacy in part to the inhibition of an enzyme called glycogen synthase kinase 3 (GSK3). A technique similar to one used in the pharmaceutical industry was used to determine study a mood support composition. See, e.g., Duong-Ly, K. C. & Peterson, J. R. Curr. Protoc. Pharmacol. Chapter 2, Unit2.9 (2013); Ma, H. et al. Expert Opin. Drug Discov.
Within the body, protein kinases are responsible for carrying out cellular and intracellular actions, such as cell-to-cell signaling, neurotransmitter regulation, and hormone release. Several protein kinases are known to influence mood, and many are targets of therapeutic drugs. As a natural alternative to pharmaceuticals, Blend A was screened for efficacy of inhibiting 18 common, mood-related drug targets, including 17 kinases and 1 enzyme.

GSK3α, sequence (P49840 whole entry, species assumed): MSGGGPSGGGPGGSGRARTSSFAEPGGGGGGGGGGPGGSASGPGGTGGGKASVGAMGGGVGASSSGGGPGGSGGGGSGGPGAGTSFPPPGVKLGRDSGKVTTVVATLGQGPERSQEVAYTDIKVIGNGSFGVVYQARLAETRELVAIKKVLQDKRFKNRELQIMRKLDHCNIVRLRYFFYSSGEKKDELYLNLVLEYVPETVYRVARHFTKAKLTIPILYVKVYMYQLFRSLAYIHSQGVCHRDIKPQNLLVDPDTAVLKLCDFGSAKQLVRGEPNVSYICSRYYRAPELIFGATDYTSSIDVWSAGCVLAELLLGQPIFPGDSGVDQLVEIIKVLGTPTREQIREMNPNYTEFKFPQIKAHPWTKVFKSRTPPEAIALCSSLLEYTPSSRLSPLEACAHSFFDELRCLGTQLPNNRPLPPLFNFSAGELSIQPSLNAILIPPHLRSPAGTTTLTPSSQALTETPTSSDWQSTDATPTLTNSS

## O[C@H]1[C@H](O)[C@@H](O)[C@H](O)[C@@H](O)[C@H]1O [Inositol, inositol]
GSK3α
  efficacy for inhibiting the target, in words: did not demonstrate efficacy
GRK2; follow up investigation, for inositol the upper limit of use (1 mM) was used in the calculation
  efficacy for inhibiting the target, in words: did not demonstrate efficacy
GSK3β
  efficacy for inhibiting the target, in words: did not demonstrate efficacy

## O=C(Nc1ccc2[nH]nc(-c3ccncc3)c2c1)[C@@H]1CCN(CC(=O)N2CCN(c3ccc(-c4ncccn4)cc3)CC2)C1 [SCH772984]
ERK1
  IC50: 5.57 nM

## CN[C@@H]1C[C@H]2O[C@@](C)([C@@H]1OC)n1c3ccccc3c3c4c(c5c6ccccc6n2c5c31)C(=O)NC4 [STAUROSPORINE, staurosporine, reference compound]
GRK2; Table 19, sum of the two analyses, each 50% weight
  Reciprocal Sum: 1.60E+06
